Measured values as given in ChEMBL document CHEMBL1139402, “Design and SAR of new substituted purines bearing aryl groups at N9 position as HIV-1 Tat-TAR interaction inhibitors” (Bioorg Med Chem, 2008).

How the values were obtained:
[1] = Cytotoxicity against human CEM cells assessed as inhibition of uninfected cells proliferation; format: cell-based; conditions: CEM (CCRF-CEM) cells, read-out: TC50 (the source's name)
[2] = tested on: Simian immunodeficiency virus; assay: Antiviral activity against SIV-induced syncytium in human CEM cells assessed as inhibition of virus-induced cytopathogenicity after 5 days; format: functional, organism-based; conditions: CCRF-CEM, 120 h
[3] = Selectivity index, ratio of TC50 for human CEM cells to EC50 for SIV-induced syncytium; design: species or system CCRF-CEM
[4] = tested on: Human immunodeficiency virus 1; assay: Inhibition of HIV1 Tat-TAR interaction-mediated transactivation in human 293T cells assessed as CAT gene expression at 30 uM after 24 hrs by ELISA; format: functional; conditions: Human immunodeficiency virus 1, HEK-293T

SMILES | EC50 [2] [µM] | CC50 [1] [µM] | Ratio [3] | inhibition at 30 µM [4] [%]
CCN(CC)c1nc(C)c2nc(SCC(=O)NCCCNC(=N)N)n(CCCn3cncn3)c2n1 | 5.8 | > 100 | >17.2 | 
CCN(CC)c1nc(C)c2nc(SCC(=O)NCCCNC(=N)N)n(CCn3cncn3)c2n1 | 7.1 | > 100 | >14.1 | 
CCN(CC)c1nc(C)c2nc(SCC(=O)NCCCNC(=N)N)n(CCc3c[nH]c4ccccc34)c2n1 | 5.6 | 29.1 | 5.2 | 
CCN(CC)c1nc(C)c2nc(SCC(=O)NCCNC(=N)N)n(CCCN3CCOCC3)c2n1 | 18.9 | > 100 | >5.3 | 81.8
CCN(CC)c1nc(C)c2nc(SCC(=O)NCCCNC(=N)N)n(CCCN3CCOCC3)c2n1 | 11.2 | > 100 | >8.9 | 48.2
CCN(CC)c1nc(C)c2nc(SCC(=O)NCCN)n(CCc3c[nH]c4ccccc34)c2n1 | 1.6 | 6.5 | 4.1 | 
CCN(CC)c1nc(C)c2nc(SCC(=O)NCCCN)n(CCc3c[nH]c4ccccc34)c2n1 | 4.2 | 10.2 | 2.4 | 
CCN(CC)c1nc(C)c2nc(SCC(=O)NCCNC(=N)N)n(CCc3c[nH]c4ccccc34)c2n1 | 7.9 | 29.5 | 3.7 | 
CCN(CC)c1nc(C)c2nc(SCC(=O)NCCN)n(CCn3cncn3)c2n1 | 13.8 | > 100 | >7.2 | 
CCN(CC)c1nc(C)c2nc(SCC(=O)NCCCN)n(CCn3cncn3)c2n1 | 11.5 | > 100 | >8.7 | 
CCN(CC)c1nc(C)c2nc(SCC(=O)NCCN)n(CCCn3cncn3)c2n1 | 6.9 | > 100 | >14.5 | 48.2
CCN(CC)c1nc(C)c2nc(SCC(=O)NCCN)n(CCCN3CCOCC3)c2n1 | 12.4 | 64.8 | 5.2 | 80.4
CCN(CC)c1nc(C)c2nc(SCC(=O)NCCCN)n(CCCn3cncn3)c2n1 | 8.9 | 31.7 | 3.6 | 
CCN(CC)c1nc(C)c2nc(SCC(=O)NCCCN)n(CCCN3CCOCC3)c2n1 | 11.8 | 87.5 | 7.4 | 83

The next lines start with results.

EC50 [2] [µM] | SMILES | CC50 [1] [µM] | Ratio [3] | inhibition at 30 µM [4] [%]
12.4 | CCN(CC)c1nc(C)c2nc(SCC(=O)NCCNC(=N)N)n(CCn3cncn3)c2n1 | > 100 | >8.1 | 
5.4 | CCN(CC)c1nc(C)c2nc(SCC(=O)NCCNC(=N)N)n(CCCn3cncn3)c2n1 | > 100 | >18.5 | 48.2
13 | CCN(CC)c1nc(C)c2nc(SCC(=O)NCCCNC(=N)N)n(CCNc3ncnc4[nH]cnc34)c2n1 | > 100 | >7.7 | 58.6
6.1 | CCN(CC)c1nc(C)c2nc(SCC(=O)NCCNC(=N)N)n(CCNc3nc(N)nc4[nH]cnc34)c2n1 | > 100 | >16.4 | 
5.5 | CCN(CC)c1nc(C)c2nc(SCC(=O)NCCCN)n(CCNc3ncnc4[nH]cnc34)c2n1 | > 100 | >18.2 | 52.3
20 | CCN(CC)c1nc(C)c2nc(SCC(=O)NCCN)n(CCNc3nc(N)nc4[nH]cnc34)c2n1 | > 100 | >5 | 
6.5 | CCN(CC)c1nc(C)c2nc(SCC(=O)NCCCN)n(CCNc3nc(N)nc4[nH]cnc34)c2n1 | > 100 | >15.4 | 
7.8 | CCN(CC)c1nc(C)c2nc(SCC(=O)NCCNC(=N)N)n(CCNc3ncnc4[nH]cnc34)c2n1 | 92.7 | 11.9 | 48.2
8.3 | CCN(CC)c1nc(C)c2nc(SCC(=O)NCCCNC(=N)N)n(CCNc3nc(N)nc4[nH]cnc34)c2n1 | > 100 | >12 | 
2.5 | CCN(CC)c1nc(C)c2nc(SCC(=O)NCCN)n(CCNc3ncnc4[nH]cnc34)c2n1 | > 100 | >40 | 48.2
